Source: patent US5358947A, “Angiotensin II receptor blocking 2,3-substituted pyrazolo[1,5-a]-1,3,5-triazin-4(3H)-ones” (American Cyanamid Company, priority 1993, dated 1994)
Several values for one entry are separate records, joined by “and”; a condition that tells them apart may be missing. Equal values may be shown once.

Test system: ANGIOTENSIN II (AII) VASOPRESSOR RESPONSE
Assay: AII Challenge: angiotensin II (AII) vasopressor response in conscious rats
Assay type: in vivo
Design: Response After AII / Change / Average Change: unit not given here
Settings: for Response After AII / Change / Control Before AII: individual rat; for Control Before AII: in mmHg (unit assumed); for % Inhibition / Average Change: n = 2
Description: By administering a compound of this invention to a rat, and then challenging with angiotensin II, a blockage of the vasopressor response is realized.
Conscious Male Okamoto-Aoki SHR, 16-20 weeks old, weighing approximately 330 g are purchased from Charles River Labs (Wilmington, Mass.). Conscious rats are restrained in a supine position with elastic tape. The area at the base of the tail is locally anesthetized by subcutaneous infiltration with 2% procaine. The ventral caudal artery and vein are isolated, and a cannula made of polyethylene (PE) 10-20 tubing (fused together by heat) is passed into the lower abdominal aorta and vena cava, respectively. The cannula is secured, heparinized (1,000 I.U./ml), sealed and the wound is closed. The animals are placed in plastic restraining cages in an upright position. The cannula is attached to s Statham P23Db pressure transducer, and pulsatile blood pressure is recorded to 10-15 minutes with a Gould Brush recorder. (Chan et al., (Drug Development Res., 18:75-94, 1989).
Angiotensin II (human sequence, Sigma Chem. Co., St. Louis, Mo.) of 0.05 and 0.1 ug/kg i.v. is injected into all rats (predosing response.). Then a test compound, vehicle or a known angiotensin II antagonist is administered i.v., i.p. or orally to each set of rats. The two doses of angiotensin II are given to each rat again at 30, 60, 90, 120, 180, 240 and 300 minutes post dosing the compound or vehicle. The vasopressor response of angiotensin II by a compound is calculated using the vasopressor response (increase in systolic blood pressure) of angiotensin II of each rat predosing the compound as 100%. A compound is considered active if at 30 mg/kg i.v. it antagonized at least 50% of the response.

[1] = 10 mg/kg i.v., AII 0.05 mcg/kg, 30 min post dose
[2] = 10 mg/kg i.v., AII 0.05 mcg/kg, 30 min post dose, listed as Ex. 10
[3] = 10 mg/kg i.v., AII 0.05 mcg/kg, 60 min post dose
[4] = 10 mg/kg i.v., AII 0.05 mcg/kg, 60 min post dose, listed as Ex. 10
[5] = 10 mg/kg i.v., AII 0.1 mcg/kg, 30 min post dose
[6] = 10 mg/kg i.v., AII 0.1 mcg/kg, 30 min post dose, listed as Ex. 10
[7] = 10 mg/kg i.v., AII 0.1 mcg/kg, 60 min post dose
[8] = 10 mg/kg i.v., AII 0.1 mcg/kg, 60 min post dose, listed as Ex. 10
[9] = 20 mg/kg i.v., AII 0.05 mcg/kg, 90 min post dose
[10] = 20 mg/kg i.v., AII 0.05 mcg/kg, 90 min post dose, listed as Ex. 10
[11] = 20 mg/kg i.v., AII 0.05 mcg/kg, 120 min post dose
[12] = 20 mg/kg i.v., AII 0.05 mcg/kg, 120 min post dose, listed as Ex. 10
[13] = 20 mg/kg i.v., AII 0.05 mcg/kg, 180 min post dose
[14] = 20 mg/kg i.v., AII 0.05 mcg/kg, 180 min post dose, listed as Ex. 10
[15] = 20 mg/kg i.v., AII 0.05 mcg/kg, 240 min post dose
[16] = 20 mg/kg i.v., AII 0.05 mcg/kg, 240 min post dose, listed as Ex. 10
[17] = 20 mg/kg i.v., AII 0.05 mcg/kg, 300 min post dose, listed as Ex. 10
[18] = 20 mg/kg i.v., AII 0.05 mcg/kg, 300 min post dose
[19] = 20 mg/kg i.v., AII 0.1 mcg/kg, 90 min post dose
[20] = 20 mg/kg i.v., AII 0.1 mcg/kg, 90 min post dose, listed as Ex. 10
[21] = 20 mg/kg i.v., AII 0.1 mcg/kg, 120 min post dose
[22] = 20 mg/kg i.v., AII 0.1 mcg/kg, 120 min post dose, listed as Ex. 10
[23] = 20 mg/kg i.v., AII 0.1 mcg/kg, 180 min post dose, listed as Ex. 10
[24] = 20 mg/kg i.v., AII 0.1 mcg/kg, 180 min post dose
[25] = 20 mg/kg i.v., AII 0.1 mcg/kg, 240 min post dose, listed as Ex. 10
[26] = 20 mg/kg i.v., AII 0.1 mcg/kg, 240 min post dose
[27] = 20 mg/kg i.v., AII 0.1 mcg/kg, 300 min post dose
[28] = 20 mg/kg i.v., AII 0.1 mcg/kg, 300 min post dose, listed as Ex. 10

## CCCCc1nc2cc(-c3ccccc3)nn2c(=O)n1Cc1ccc(-c2ccccc2-c2nnn[nH]2)cc1 [Example 10, 2-Butyl-7-phenyl-3-[[2'-(1H-tetrazol-5-yl)[1,1'-biphenyl]-4-yl]methyl]pyrazolo[1,5-a]-1,3,5-triazin-4(3H)-one]
[1]
  Response After AII: 235
  % Inhibition: 80%
  Average Change: 10
[2]
  Change: 15 and 5
  Response After AII: 215
  Control Before AII: 220 and 210
[3]
  Control Before AII: 210
  % Inhibition: 40%
  Average Change: 30
[4]
  Change: 45 and 15
  Response After AII: 255 and 230
  Control Before AII: 215
[5]
  Response After AII: 245
  Control Before AII: 210
  % Inhibition: 60%
  Average Change: 20
[6]
  Change: 35 and 5
  Response After AII: 215
[7]
  Response After AII: 250
  % Inhibition: 50%
  Average Change: 25
[8]
  Change: 40 and 10
  Response After AII: 215
  Control Before AII: 210 and 205
[9]
  Change: 10
  % Inhibition: 80%
  Average Change: 10
[10]
  Response After AII: 205 and 215
  Control Before AII: 195 and 205
[11]
  Response After AII: 210
  % Inhibition: 70%
  Average Change: 15
[12]
  Change: 10 and 20
  Response After AII: 185
  Control Before AII: 175 and 190
[13]
  Control Before AII: 185
  % Inhibition: 65%
  Average Change: 17.5
[14]
  Change: 10 and 25
  Response After AII: 195 and 210
[15]
  Response After AII: 190
  % Inhibition: 85%
  Average Change: 7.5
[16]
  Change: 10 and 5
  Response After AII: 205
  Control Before AII: 195 and 185
[17]
  Change: 30 and 15
  Response After AII: 220 and 195
  Control Before AII: 190 and 180
[18]
  % Inhibition: 55%
  Average Change: 22.5
[19]
  Response After AII: 210
  % Inhibition: 90%
  Average Change: 5
[20]
  Change: 10 and 0
  Response After AII: 215
  Control Before AII: 205 and 210
[21]
  Response After AII: 200
  % Inhibition: 85%
  Average Change: 7.5
[22]
  Change: 5 and 10
  Response After AII: 205
  Control Before AII: 200 and 190
[23]
  Change: 20 and 15
  Response After AII: 210 and 200
  Control Before AII: 190 and 185
[24]
  % Inhibition: 65%
  Average Change: 17.5
[25]
  Change: 17 and 10
  Response After AII: 217 and 195
  Control Before AII: 200 and 185
[26]
  % Inhibition: 73%
  Average Change: 13.5
[27]
  Change: 30
  Response After AII: 235
  % Inhibition: 40%
  Average Change: 30
[28]
  Response After AII: 205
  Control Before AII: 205 and 175
